Reference: patent publication US20150004631A1, “Plasmodium falciparum HLA class I restricted T-cell epitopes” (priority 2013, published 2015)
No end group written: not given here.

Assays:
Assay type in all cases: cell-based, human
PBMC [1] = assay: ELISpot IFN-γ assay, PBMC of Ad5-PfCA immunized volunteers (Gp1); details: for ELISpot activity of 15 mer peptide: v005, 1 month PBMC
Method: […] In these studies, IFN-γ activity was measured in response to exposure to the peptide pools. The assays were conducted essentially as described by Wang, et al., Proc. Natl. Acad. Sci. (U.S.A.), 98: 10817-22.
The stimulation of circulating antigen-specific T cell lymphocytes was evaluated by measurement of γ-IFN induction by ELISPOT. The ELISpot assay was conducted using thawed cryopreserved PBMC at 200K cells per well. Pre-challenge cells were taken at day 21 and day 22 post AdPfCA vaccination. Cells were suspended in […] complete medium and were stimulated with AMA1 peptides suspended in […] of complete medium. Peptide concentrations used in assays was 10 μg/ml of each peptide tested. Cultures were incubated for 36 h at 37° C., 5% CO2. Depending on availability of cells, each PBMC sample was assayed in duplicate, triplicate, or quadruplicate and the number of IFN-γ-secreting cells recognized as spot-forming cells (SFC) was enumerated using an automated ELISpot reader. In duplicate assays, all values were used in analysis. For triplicate or quadruplicate assays, outliers were rejected if any single value contributed more than 50% of the standard deviation of the triplicate (or quadruplicate) and if its value was three-fold greater or less than the average of the remaining two (or three) values. The mean spot forming cells (SFCs) obtained in negative control wells were subtracted from the value of each test well from the same sample. Negative counts generated by this background subtraction were converted to zero. The mean spot number of the test sample was then calculated and expressed as SFC/million PBMCs. Values obtained with pre-vaccinated samples were subtracted from the post-vaccination values.

[2] = tested on: CD4+ or CD8+ T cell depleted PBMC; assay: ELISpot IFN-γ assay after CD4+ or CD8+ T cell depletion of PBMC (Example 1); details: versus control depletion
Method: PBMC population depletion was conducted using anti-human CD4+ and anti-CD8^+ coated Dynabeads™ M-450 (Dynal, Great Neck, N.Y.) following the manufacturer's instructions. Mock depletion was done with Dynabeads coated with Sheep anti-mouse IgG. Flow cytometry confirmed that T-cell subset depletions were >99% in all experiments. The data is presented as the % effect (decrease) in activity after T cell subset depletion.
Finally, we wanted to confirm that indeed the responses to AMA14e were mediated by CD8^+ T cells. We compared activity to AMA14e in ELISpot depletion assays and ICS CD4^+ or CD8^+ T cell IFN-γ assays with Ap1-12 and recombinant AMA1 protein with v001 and v005 (FIG. 3). CD8^+ T cell depletion reduced ELISpot activity to AMA14e by about 85% in v001 and 95% in v005.

CD4+ and CD8+ T cells = assay: Intracellular cytokine staining (ICS) of PBMC; details: for CD8^+ T cell IFN-γ response in ICS: HLA-matched volunteers, compared with parent peptide pool, FIG. 1 upper panel; for multifunctional CD8^+ T cell responses in ICS: v008 and v012, any two of IFN-γ, IL-2, TNF-α, FIG. 1 lower panel
Method: ICS was performed on PBMCs with costimulatory antibodies anti-CD28 and […] (obtained from BD Bioscience™, San Jose, Calif.). The peptides were used at the same concentrations as in ELISpot assays. Stimulants were added t cells and incubated at 37° C. with 5% CO2 for 2 hr. Golgi Plug™ (Brefeldin A) (BD Bioscience™, San Jose, Calif.) was added at a final concentration of 0.6 μL/mL and incubated at 37° C. with 5% CO2 overnight. Cells were stained with anti-CD3 (Alexa Fluor 700™), anti-CD4 (PerCP™), and anti-CD8 Pacific Blue™ (obtained from BD Bioscience™, San Jose, Calif.). and 1 μg/mL of live/dead fixable blue dye, incubated and washed. Cells were permeabilized with Cytofix/Cytoperm™ solution (obtained from BD Bioscience™, San Jose, Calif.), incubated and washed. Cells were stained intracellularly with anti-CD3 (Alexa Fluor 700™), anti-CD4 (PerCP™), and anti-CD8 Pacific Blue™, anti-IFN-γ FITC, anti-TNF PE, and anti-IL2 APC, incubated and washed. Cells were resuspended and the entire available sample was acquired by flowcytometry. The gating strategy included progressively measuring total cells; viable cells only; lymphocytes; T cells; CD4^+ CD8^+ populations; and a specific cell type expressing a specific cytokine. Histograms were used to determine the total production of IFN-γ, IL2, and TNF for the CD4^+ and CD8^+ populations. Boolean gates were used to determine cells producing combinations of cytokines.
In these studies, T cells containing IFN-γ, IL2, or TNFα, were gated into different subsets: IFN-γ+, IL2+, TNFα−; IFN-γ+, IL2−, TNFα+; IFN-γ+, IL2+, TNFα+; or IFN-γ+, IL2−, TNFα− T cells, and stimulated with the predicted epitopes and their parent peptide pool. The frequency of CD8^+ T cells producing total IFN-γ was far greater than CD4^+ T cell responses (FIG. 1, upper panel), which were extremely low.

PBMC [3] = assay: ELISpot IFN-γ assay, PBMC of AdPfCA / DNA prime-AdPfCA boost volunteers (Example 2); details: minimal epitope contained in Ap10; primarily CD8^+
From the text: To more clearly define immunological active regions of AMA1, PBMCs were isolated from AMA1 immunized volunteers. Two groups of volunteers, i.e., Gp 1 (from example 1, above) and Gp2, received 2×10^10 particle units of AdPfCA (NMRC-M3V-Ad-PfCA, NMRC+Multi-antigen Multi-stage, Malaria Vaccine+Adenovector+P. falciparum CSP & AMA1 antigens). The vaccine is a combination of two separate recombinant Ad5 constructs, one expressing full length CSP and the other expressing full length apical membrane antigen 1 (AMA1). AdPfCA expressed the AMA1 regions A1 through A12. Twenty-eight (28) days later, PBMC's were collected.
In a third group (termed preCh in FIG. 7 and FIG. 8), fifteen volunteers were primed with three doses (2 mg/dose) with one month between doses. Sixteen weeks after the final DNA priming dose, each volunteer received 2×10^10 particle units of AdPfCA. PBMC's were collected on day 22-23 after receiving AdPfCA. […]
The stimulation of circulating antigen-specific T cell lymphocytes was evaluated by measurement of γ-IFN induction by ELISPOT. […] Depending on availability of cells, each PBMC sample was assayed in duplicate, triplicate, or quadruplicate and the number of IFN-γ-secreting cells recognized as spot-forming cells (SFC) was enumerated using an automated ELISpot reader. […] The mean spot number of the test sample was then calculated and expressed as SFC/million PBMCs. […]

Sequence: CEIFNVKPTCLINNS [Ap8-12]
- IFN-γ ELISpot activity of individual 15 mer peptide (PBMC [1]; Volunteer 005): 127 SFC/10^6

Sequence: KEYEYPLHQEHTYQQ [Ap1-13]
- IFN-γ ELISpot activity of individual 15 mer peptide (PBMC [1]; Volunteer 001): 42 SFC/10^6
- % effect on ELISpot activity, CD4 dep ([2]; V001): +133%
- % effect on ELISpot activity, CD8 dep ([2]; V001): −76%

Sequence: REHPKEYEYPLHQEH [Ap1-12]
- IFN-γ ELISpot activity of individual 15 mer peptide (PBMC [1]; Volunteer 002): 66 SFC/10^6
- IFN-γ ELISpot activity of individual 15 mer peptide (PBMC [1]; Volunteer 005): 118 SFC/10^6

Sequence: RYKSHGKGY [Ep # 14, RYKSHGKGY]
- ELISpot 7m, predicted 8-10 mer epitope (PBMC [1]; Vol 012, PBMC 7 months): 11
- recognition of minimal epitope in ELISpot (PBMC [1]; v012, criteria for positive 40 SFC/million): negative
- CD8^+ T cell IFN-γ response in ICS (CD4+ and CD8+ T cells): very weak CD8^+ IFN-γ responses
- multifunctional CD8^+ T cell responses in ICS (CD4+ and CD8+ T cells): did not appear to induce multifunctional responses

Sequence: EDIPHVNEFPAIDLF [Ap7-3]
- IFN-γ ELISpot activity of individual 15 mer peptide (PBMC [1]; Volunteer 001): 139 SFC/10^6

Sequence: NEVVVKEEY [Ep # 1, NEVVVKEEY]
- CD8^+ T cell IFN-γ response in ICS (CD4+ and CD8+ T cells): equal or more CD8^+ IFN-γ than the parent peptide pool

Sequence: NEFPAIDLF (listed as Plasmodium falciparum) [Ep # 2]
- CD8^+ T cell IFN-γ response in ICS (CD4+ and CD8+ T cells): equal or more CD8^+ IFN-γ than the parent peptide pool

Sequence: EMRHFYKDNKYVKNL [Ap4-11]
- IFN-γ ELISpot activity of individual 15 mer peptide (PBMC [1]; Volunteer 005): 65 SFC/10^6
- ELISpot activity of 15 mer peptide (PBMC [1]): 65 sfc/m

Sequence: LMSPMTLDEMRHFYK [Ap4-9]
- IFN-γ ELISpot activity of individual 15 mer peptide (PBMC [1]; Volunteer 002): 189 SFC/10^6
- IFN-γ ELISpot activity of individual 15 mer peptide (PBMC [1]; Volunteer 005): 395 SFC/10^6
- % effect on ELISpot activity, CD4 dep ([2]; V005): −32%
- % effect on ELISpot activity, CD8 dep ([2]; V005): −100%

Sequence: NQYLKDGGFAFPPTE [Ap4-5]
- IFN-γ ELISpot activity of individual 15 mer peptide (PBMC [1]; Volunteer 005): 50 SFC/10^6
- ELISpot activity of 15 mer peptide (PBMC [1]): 50 sfc/m

Sequence: TLDEMRHFY [Ep # 8]
- ELISpot 4m, predicted 8-10 mer epitope (PBMC [1]; Vol 002, PBMC 4 months): 51
- CD8^+ T cell IFN-γ response in ICS (CD4+ and CD8+ T cells): equal or more CD8^+ IFN-γ than the parent peptide pool

Sequence: NSTCRFFVCK (listed as Plasmodium falciparum)
- T-cell response (IFN-γ SFC) (PBMC [3]): significant T-cell response

Sequence: QNSDVYRPINEHREH [Ap1-9]
- IFN-γ ELISpot activity of individual 15 mer peptide (PBMC [1]; Volunteer 001): 48 SFC/10^6

Sequence: INEHREHPKEYEYPL [Ap1-11]
- IFN-γ ELISpot activity of individual 15 mer peptide (PBMC [1]; Volunteer 002): 180 SFC/10^6
- IFN-γ ELISpot activity of individual 15 mer peptide (PBMC [1]; Volunteer 005): 322 SFC/10^6
- % effect on ELISpot activity, CD4 dep ([2]; V002): −18%
- % effect on ELISpot activity, CD8 dep ([2]; V002): −94%
- % effect on ELISpot activity, CD4 dep ([2]; V005): −37%
- % effect on ELISpot activity, CD8 dep ([2]; V005): −100%

Sequence: HPKEYEYPL (listed as Plasmodium falciparum) [Ep # 9]
- CD8^+ T cell IFN-γ response in ICS (CD4+ and CD8+ T cells): equal or more CD8^+ IFN-γ than the parent peptide pool

Sequence: TSNNEVVVKEEYKDE [Ap10-13]
- IFN-γ ELISpot activity of individual 15 mer peptide (PBMC [1]; Volunteer 001): 250 SFC/10^6
- IFN-γ ELISpot activity of individual 15 mer peptide (PBMC [1]; Volunteer 012): 233 SFC/10^6
- % effect on ELISpot activity, CD4 dep ([2]; V001): +148%
- % effect on ELISpot activity, CD8 dep ([2]; V001): −88%
- % effect on ELISpot activity, CD4 dep ([2]; V012): +14%
- % effect on ELISpot activity, CD8 dep ([2]; V012): −100%

Sequence: CNKLVFELSASDQPK [Ap7-7]
- IFN-γ ELISpot activity of individual 15 mer peptide (PBMC [1]; Volunteer 001): 77 SFC/10^6

Sequence: FKADRYKSHGKGYNW [Ap8-6]
- IFN-γ ELISpot activity of individual 15 mer peptide (PBMC [1]; Volunteer 012): 143 SFC/10^6

Sequence: HVNEFPAIDLFECNK [Ap7-4]
- IFN-γ ELISpot activity of individual 15 mer peptide (PBMC [1]; Volunteer 001): 96 SFC/10^6

Sequence: ETQKCEIFNV (listed as Plasmodium falciparum) [Ep # 10]
- CD8^+ T cell IFN-γ response in ICS (CD4+ and CD8+ T cells): very weak CD8^+ IFN-γ responses
- multifunctional CD8^+ T cell responses in ICS (CD4+ and CD8+ T cells): did not appear to induce multifunctional responses

Sequence: LLSAFEFTYMINFGR [Ap1-3]
- IFN-γ ELISpot activity of individual 15 mer peptide (PBMC [1]; Volunteer 001): 48 SFC/10^6
- % effect on ELISpot activity, CD4 dep ([2]; V001): −32%
- % effect on ELISpot activity, CD8 dep ([2]; V001): −56%

Sequence: MTLDEMRHFYKDNKY [Ap4-10]
- IFN-γ ELISpot activity of individual 15 mer peptide (PBMC [1]; Volunteer 002): 82 SFC/10^6
- IFN-γ ELISpot activity of individual 15 mer peptide (PBMC [1]; Volunteer 005): 118 SFC/10^6

Sequence: ETQKCEIFNVKPTCL [Ap8-11]
- IFN-γ ELISpot activity of individual 15 mer peptide (PBMC [1]; Volunteer 001): 48 SFC/10^6
- IFN-γ ELISpot activity of individual 15 mer peptide (PBMC [1]; Volunteer 005): 218 SFC/10^6
- IFN-γ ELISpot activity of individual 15 mer peptide (PBMC [1]; Volunteer 008): 48 SFC/10^6
